Where two headings read alike, the source gives them in different places.
Molecular target: SOS1-KRas (G12C) (Homo sapiens (Human), UniProt Q07889)
Experiment: SOS1-KRas (G12C) FRET Assay
Format: binding
[1] = inhibition of SOS1:KRAS interaction, 0.5 nM His10-SOS1 (res. 564-1049), 2.5 nM GST-KRAS (res. 1-169, G12C), 2 hrs at RT

Sequence of SOS1-KRas (G12C) (Q07889 564-1049, stated change not applied): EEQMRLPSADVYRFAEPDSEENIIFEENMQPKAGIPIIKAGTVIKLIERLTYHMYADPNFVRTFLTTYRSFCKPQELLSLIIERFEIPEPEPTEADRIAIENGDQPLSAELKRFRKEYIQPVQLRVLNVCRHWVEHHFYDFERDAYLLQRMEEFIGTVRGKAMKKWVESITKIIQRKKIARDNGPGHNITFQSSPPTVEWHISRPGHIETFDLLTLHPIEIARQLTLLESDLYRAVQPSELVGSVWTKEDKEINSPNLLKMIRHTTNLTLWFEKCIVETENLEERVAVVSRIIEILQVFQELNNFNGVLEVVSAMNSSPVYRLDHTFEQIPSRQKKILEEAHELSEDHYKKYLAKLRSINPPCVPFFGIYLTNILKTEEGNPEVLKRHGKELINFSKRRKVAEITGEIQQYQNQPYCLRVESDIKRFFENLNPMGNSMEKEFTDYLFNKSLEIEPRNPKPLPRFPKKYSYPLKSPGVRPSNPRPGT
Method: The final assay was performed at 20 uL with 0.5 nM SOS1 protein and 2.5 nM KRAS protein in a buffer of PBS, 0.1% BSA, 5 mM MgCl2, 0.0025% Igepal, 100 mM KF, 5 mM DTT in a white 384 square well OptiPlate (PerkinElmer, Cat. 6007290). A 2×KRAS working solution was prepared in an assay buffer containing 5 nM GST-KRAS G12C and 2 nM anti-GST-Eu (K) (Cisbio, Cat. 61GSTKLA) and pre-incubated for 15 minutes at 25° C. […] The final DMSO concentration is 0.5%. Plates were incubated at RT for 2 hrs before the FRET signal was measured using Envision at emission 665 nm and 615 nm. FRET signal was converted to percentage of protein-protein interaction using the following equation:
[formula] • C: signal with compound treatment • P: signal for positive control (DMSO) • N: signal for negative control (no SOS1 added) • IC50 and Hill coefficients were obtained using Graph Pad Prism (Graph Pad software, Inc, USA) with non-linear regression analysis.

`C[C@@H](NC(=O)c1cc(N2CCC(F)(F)C2)c(F)cc1N[C@@H]1CN2CCC1CC2)c1cccc(C(F)F)c1F` [Example 26, N—((R)-1-(3-(difluoromethyl)-2-fluorophenyl)ethyl)-5-(3,3-difluoropyrrolidin-1-yl)-4-fluoro-2-(((S)-quinuclidin-3-yl)amino)benzamide] showed an IC50 [1] of 88.8 nM.
For `C[C@@H](NC(=O)c1cc(N2CCC(F)(F)C2)c(F)cc1N[C@H]1CN2CCC1CC2)c1cccc(C(F)F)c1F` [Example 27, N—((R)-1-(3-(difluoromethyl)-2-fluorophenyl)ethyl)-5-(3,3-difluoropyrrolidin-1-yl)-4-fluoro-2-(((R)-quinuclidin-3-yl)amino)benzamide], the IC50 [1] was 22.5 nM.
Compound `C[C@@H](NC(=O)c1cc(N2CCC2)c(F)cc1N[C@@H]1CN2CCC1CC2)c1cccc(C(F)F)c1F` [Example 28, 5-(azetidin-1-yl)-N—((R)-1-(3-(difluoromethyl)-2-fluorophenyl)ethyl)-4-fluoro-2-(((S)-quinuclidin-3-yl)amino)benzamide] has an IC50 [1] of 61.3 nM.
`C[C@@H](NC(=O)c1cc(N2CCC2)c(F)cc1N[C@H]1CN2CCC1CC2)c1cccc(C(F)F)c1F` [Example 29, 5-(azetidin-1-yl)-N—((R)-1-(3-(difluoromethyl)-2-fluorophenyl)ethyl)-4-fluoro-2-(((R)-quinuclidin-3-yl)amino)benzamide] showed an IC50 [1] of 205 nM.
`C[C@@H](NC(=O)c1cc(N2CCCC2)c(F)cc1N[C@@H]1CN2CCC1CC2)c1cccc(C(F)F)c1F` [Example 32, N—((R)-1-(3-(difluoromethyl)-2-fluorophenyl)ethyl)-4-fluoro-5-(pyrrolidin-1-yl)-2-(((S)-quinuclidin-3-yl)amino)benzamide] gave an IC50 [1] of 133 nM.
Work on `C[C@@H](NC(=O)c1cc(N2CCCC2)c(F)cc1N[C@H]1CN2CCC1CC2)c1cccc(C(F)F)c1F` [Example 33, N—((R)-1-(3-(difluoromethyl)-2-fluorophenyl)ethyl)-4-fluoro-5-(pyrrolidin-1-yl)-2-(((R)-quinuclidin-3-yl)amino)benzamide] yielded an IC50 [1] of 35 nM.
Work on `C[C@@H](NC(=O)c1cc(N2CC(F)(F)C[C@@H]2C)c(F)cc1NC1CCN(C)CC1)c1cccc(C(F)F)c1F` [Example 37, 5-((S)-4,4-difluoro-2-methylpyrrolidin-1-yl)-N-((R)-1-(3-(difluoromethyl)-2-fluorophenyl)ethyl)-4-fluoro-2-((1-methylpiperidin-4-yl)amino)benzamide] yielded an IC50 [1] of 138 nM.
Compound `C[C@@H](NC(=O)c1cc(N2CC3COCC(C3)C2)c(F)cc1NC1CCN(C)CC1)c1cccc(C(F)F)c1F` [Example 38, 5-(3-oxa-7-azabicyclo[3.3.1]nonan-7-yl)-N-((R)-1-(3-(difluoromethyl)-2-fluorophenyl)ethyl)-4-fluoro-2-((1-methylpiperidin-4-yl)amino)benzamide] has an IC50 [1] of 35.7 nM.
Work on `C[C@@H](NC(=O)c1cc(N2C3CCCC2COC3)c(F)cc1NC1CCN(C)CC1)c1cccc(C(F)F)c1F` [Example 39, 5-(3-oxa-9-azabicyclo[3.3.1]nonan-9-yl)-N-((R)-1-(3-(difluoromethyl)-2-fluorophenyl)ethyl)-4-fluoro-2-((1-methylpiperidin-4-yl)amino)benzamide] yielded an IC50 [1] of 111 nM.
`C[C@@H](NC(=O)c1cc(N2CCOC(F)(F)C2)c(F)cc1NC1CCN(C)CC1)c1cccc(C(F)F)c1F` [Example 40, (R)-N-(1-(3-(difluoromethyl)-2-fluorophenyl)ethyl)-5-(2,2-difluoromorpholino)-4-fluoro-2-((1-methylpiperidin-4-yl)amino)benzamide] gave an IC50 [1] of 21.9 nM.
With `C[C@@H](NC(=O)c1cc(N2CC3CCCC(C2)O3)c(F)cc1NC1CCN(C)CC1)c1cccc(C(F)F)c1F` [Example 41, 5-(9-oxa-3-azabicyclo[3.3.1]nonan-3-yl)-N-((R)-1-(3-(difluoromethyl)-2-fluorophenyl)ethyl)-4-fluoro-2-((1-methylpiperidin-4-yl)amino)benzamide] the IC50 [1] was 33.3 nM.
`C[C@@H](NC(=O)c1cc(N2CCOCC2)c(F)cc1N[C@@H]1CN2CCC1CC2)c1cccc(C(C)(F)F)c1F` [Example 42, N—((R)-1-(3-(1,1-difluoroethyl)-2-fluorophenyl)ethyl)-4-fluoro-5-morpholino-2-(((S)-quinuclidin-3-yl)amino)benzamide] was tested, and the IC50 [1] was 49.5 nM.
`C[C@@H](NC(=O)c1cc(N2CCOCC2)c(F)cc1N[C@H]1CN2CCC1CC2)c1cccc(C(C)(F)F)c1F` [Example 43, N—((R)-1-(3-(1,1-difluoroethyl)-2-fluorophenyl)ethyl)-4-fluoro-5-morpholino-2-(((R)-quinuclidin-3-yl)amino)benzamide] showed an IC50 [1] of 15.1 nM.
Compound `Cc1c(C#N)cccc1[C@@H](C)NC(=O)c1cc(N2CCOCC2)c(F)cc1N[C@@H]1CN2CCC1CC2` [Example 44, N—((R)-1-(3-cyano-2-methylphenyl)ethyl)-4-fluoro-5-morpholino-2-(((S)-quinuclidin-3-yl)amino)benzamide] has an IC50 [1] of 210 nM.
Compound `Cc1c(C#N)cccc1[C@@H](C)NC(=O)c1cc(N2CCOCC2)c(F)cc1N[C@H]1CN2CCC1CC2` [Example 45, N—((R)-1-(3-cyano-2-methylphenyl)ethyl)-4-fluoro-5-morpholino-2-(((R)-quinuclidin-3-yl)amino)benzamide] has an IC50 [1] of 69.2 nM.
`Cc1c(C#N)cccc1[C@@H](C)NC(=O)c1cc(N2CCOCC2)c(F)cc1NC1CCN(C)CC1` [Example 46, (R)—N-(1-(3-cyano-2-methylphenyl)ethyl)-4-fluoro-2-((1-methylpiperidin-4-yl)amino)-5-morpholinobenzamide] showed an IC50 [1] of 74.6 nM.
With `C[C@@H](NC(=O)c1cc(N2CCOCC2)c(F)cc1NCCN)c1cccc(C(F)F)c1F` [Example 47, (R)-2-((2-aminoethyl)amino)-N-(1-(3-(difluoromethyl)-2-fluorophenyl)ethyl)-4-fluoro-5-morpholinobenzamide] the IC50 [1] was 33.7 nM.
`C[C@@H](NC(=O)c1cc(N2CCOCC2)c(F)cc1NCCN(C)C)c1cccc(C(F)F)c1F` [Example 48, (R)—N-(1-(3-(difluoromethyl)-2-fluorophenyl)ethyl)-2-((2-(dimethylamino)ethyl)amino)-4-fluoro-5-morpholinobenzamide] showed an IC50 [1] of 63.8 nM.
For `C[C@@H](NC(=O)c1cc(N2CCOCC2)c(F)cc1NC(C)(C)C#N)c1cccc(C(F)F)c1F` [Example 51, (R)-2-((2-cyanopropan-2-yl)amino)-N-(1-(3-(difluoromethyl)-2-fluorophenyl)ethyl)-4-fluoro-5-morpholinobenzamide], the IC50 [1] was 333 nM.
`C[C@@H](NC(=O)c1cc(N2CCOCC2)c(F)cc1NC(C)(C)CN(C)C)c1cccc(C(F)F)c1F` [Example 52, (R)—N-(1-(3-(difluoromethyl)-2-fluorophenyl)ethyl)-2-((1-(dimethylamino)-2-methylpropan-2-yl)amino)-4-fluoro-5-morpholinobenzamide] was tested, and the IC50 [1] was 64.8 nM.
Compound `C[C@@H](NC(=O)c1cc(N2CCOCC2)c(F)cc1NC12CC(N(C)C)(C1)C2)c1cccc(C(F)F)c1F` [Example 53, (R)—N-(1-(3-(difluoromethyl)-2-fluorophenyl)ethyl)-2-((3-(dimethylamino)bicyclo[1.1.1]pentan-1-yl)amino)-4-fluoro-5-morpholinobenzamide] has an IC50 of 77.3 nM.
`C[C@@H](NC(=O)c1cc(N2CCOCC2)c(F)cc1NC1(C)CN(C)C1)c1cccc(C(F)F)c1F` [Example 54, (R)—N-(1-(3-(difluoromethyl)-2-fluorophenyl)ethyl)-2-((1,3-dimethylazetidin-3-yl)amino)-4-fluoro-5-morpholinobenzamide] gave an IC50 [1] of 74.1 nM.
In the case of `Cc1c([C@@H](C)NC(=O)c2cc(-c3ccncc3)c(F)cc2NC2CCN(C)CC2)cccc1C(F)(F)F` [Example 56, (R)-4-fluoro-N-(1-(2-methyl-3-(trifluoromethyl)phenyl)ethyl)-2-((1-methylpiperidin-4-yl)amino)-5-(pyridin-4-yl)benzamide], the IC50 [1] is reported as 34.8 nM.
`C[C@@H](NC(=O)c1cc(-c2ccncc2)c(F)cc1NC1CCN(C)CC1)c1cccc(C(F)F)c1F` [Example 57, (R)—N-(1-(3-(difluoromethyl)-2-fluorophenyl)ethyl)-4-fluoro-2-((1-methylpiperidin-4-yl)amino)-5-(pyridin-4-yl)benzamide] showed an IC50 [1] of 9.8 nM.
With `C[C@@H](NC(=O)c1cc(-c2ccn(C)c(=O)c2)c(F)cc1NC1CCN(C)CC1)c1cccc(C(F)F)c1F` [Example 60, (R)—N-(1-(3-(difluoromethyl)-2-fluorophenyl)ethyl)-4-fluoro-5-(1-methyl-2-oxo-1,2-dihydropyridin-4-yl)-2-((1-methylpiperidin-4-yl)amino)benzamide] the IC50 [1] was 11 nM.
With `Cc1c([C@@H](C)NC(=O)c2cc(-c3cnoc3)c(F)cc2NC2CCN(C)CC2)cccc1C(F)(F)F` [Example 61, (R)-4-fluoro-5-(isoxazol-4-yl)-N-(1-(2-methyl-3-(trifluoromethyl)phenyl)ethyl)-2-((1-methylpiperidin-4-yl)amino)benzamide] the IC50 [1] was 130 nM.
In the case of `C[C@@H](NC(=O)c1cc(-c2ccc(=O)n(C)c2)c(F)cc1NC1CCN(C)CC1)c1cccc(C(F)F)c1F` [Example 62, (R)-N-(1-(3-(difluoromethyl)-2-fluorophenyl)ethyl)-4-fluoro-5-(1-methyl-6-oxo-1,6-dihydropyridin-3-yl)-2-((1-methylpiperidin-4-yl)amino)benzamide], the IC50 is reported as 10.5 nM.
In the case of `C[C@@H](NC(=O)c1cc(-c2ccncc2F)c(F)cc1NC1CCN(C)CC1)c1cccc(C(F)F)c1F` [Example 63, (R)-N-(1-(3-(difluoromethyl)-2-fluorophenyl)ethyl)-4-fluoro-5-(3-fluoropyridin-4-yl)-2-((1-methylpiperidin-4-yl)amino)benzamide], the IC50 [1] is reported as 14.9 nM.
Compound `Cc1cc(-c2cc(C(=O)N[C@H](C)c3cccc(C(F)F)c3F)c(NC3CCN(C)CC3)cc2F)ccn1` [Example 64, (R)-N-(1-(3-(difluoromethyl)-2-fluorophenyl)ethyl)-4-fluoro-2-((1-methylpiperidin-4-yl)amino)-5-(2-methylpyridin-4-yl)benzamide] has an IC50 [1] of 8.3 nM.
`C[C@@H](NC(=O)c1cc(-c2ccnnc2)c(F)cc1NC1CCN(C)CC1)c1cccc(C(F)F)c1F` [Example 65, (R)-N-(1-(3-(difluoromethyl)-2-fluorophenyl)ethyl)-4-fluoro-2-((1-methylpiperidin-4-yl)amino)-5-(pyridazin-4-yl)benzamide] was tested, and the IC50 [1] was 6.9 nM.

Reference: patent US20250368634A1, “PHENYL AMIDE COMPOUNDS AND METHODS OF USE” (SCHRÖDINGER, INC., priority 2022, published 2025)
